Some results are limits rather than exact numbers.

For one test, the target named is EGFR del19/T790M/C797S (Homo sapiens, UniProt P00533, C797S/DEL746-750/T790M). In words: Biochemical EGFR kinase assay (Lance Ultra TR-FRET), triple mutant del19/T790M/C797S. The settings on record: Km ATP; read-out: IC50 del19/T790M/C797S (nM) Km ATP. In short, it runs like this: (§1)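 Step 1: compound in kinase buffer, 0.003–10 μM. Step 2: kinase reaction 1 h at room temperature. Step 4: TR-FRET read at 615/665 nm; IC50 calculated.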

The target in a further test is EGFR L858R/T790M/C797S (Homo sapiens, UniProt P00533, C797S/L858R/T790M). Put plainly: Biochemical EGFR kinase assay (Lance Ultra TR-FRET), triple mutant L858R/T790M/C797S. The settings on record: Km ATP; read-out: IC50 L858R/T790M/C797S (nM) Km ATP. An outline of the steps: as §1
A general note: TR-FRET usually uses a lanthanide donor and a delayed reading to cut background.

The next test addresses EGFR del19/C797S (Homo sapiens, UniProt P00533, C797S/DEL746-750). In words: Biochemical EGFR kinase assay (Lance Ultra TR-FRET), double mutant del19/C797S. The conditions noted are these: Km ATP; read-out: IC50 del19/C797S (nM) Km ATP. In short, it runs like this:
as §1

A further test has as its target EGFR L858R/C797S (Homo sapiens, UniProt P00533, C797S/L858R). In words: Biochemical EGFR kinase assay (Lance Ultra TR-FRET), double mutant L858R/C797S. The settings on record: Km ATP; read-out: IC50 L858R/C797S (nM) Km ATP. In short, it runs like this:
as §1

For a further test, the target named is EGFR wildtype (Homo sapiens, UniProt P00533). Put plainly: Biochemical EGFR kinase assay (Lance Ultra TR-FRET), wildtype. The conditions noted are these: Km ATP; read-out: IC50 WT (nM) Km ATP. An outline of the steps:
as §1

Chain of EGFR wildtype (P00533 25-1210): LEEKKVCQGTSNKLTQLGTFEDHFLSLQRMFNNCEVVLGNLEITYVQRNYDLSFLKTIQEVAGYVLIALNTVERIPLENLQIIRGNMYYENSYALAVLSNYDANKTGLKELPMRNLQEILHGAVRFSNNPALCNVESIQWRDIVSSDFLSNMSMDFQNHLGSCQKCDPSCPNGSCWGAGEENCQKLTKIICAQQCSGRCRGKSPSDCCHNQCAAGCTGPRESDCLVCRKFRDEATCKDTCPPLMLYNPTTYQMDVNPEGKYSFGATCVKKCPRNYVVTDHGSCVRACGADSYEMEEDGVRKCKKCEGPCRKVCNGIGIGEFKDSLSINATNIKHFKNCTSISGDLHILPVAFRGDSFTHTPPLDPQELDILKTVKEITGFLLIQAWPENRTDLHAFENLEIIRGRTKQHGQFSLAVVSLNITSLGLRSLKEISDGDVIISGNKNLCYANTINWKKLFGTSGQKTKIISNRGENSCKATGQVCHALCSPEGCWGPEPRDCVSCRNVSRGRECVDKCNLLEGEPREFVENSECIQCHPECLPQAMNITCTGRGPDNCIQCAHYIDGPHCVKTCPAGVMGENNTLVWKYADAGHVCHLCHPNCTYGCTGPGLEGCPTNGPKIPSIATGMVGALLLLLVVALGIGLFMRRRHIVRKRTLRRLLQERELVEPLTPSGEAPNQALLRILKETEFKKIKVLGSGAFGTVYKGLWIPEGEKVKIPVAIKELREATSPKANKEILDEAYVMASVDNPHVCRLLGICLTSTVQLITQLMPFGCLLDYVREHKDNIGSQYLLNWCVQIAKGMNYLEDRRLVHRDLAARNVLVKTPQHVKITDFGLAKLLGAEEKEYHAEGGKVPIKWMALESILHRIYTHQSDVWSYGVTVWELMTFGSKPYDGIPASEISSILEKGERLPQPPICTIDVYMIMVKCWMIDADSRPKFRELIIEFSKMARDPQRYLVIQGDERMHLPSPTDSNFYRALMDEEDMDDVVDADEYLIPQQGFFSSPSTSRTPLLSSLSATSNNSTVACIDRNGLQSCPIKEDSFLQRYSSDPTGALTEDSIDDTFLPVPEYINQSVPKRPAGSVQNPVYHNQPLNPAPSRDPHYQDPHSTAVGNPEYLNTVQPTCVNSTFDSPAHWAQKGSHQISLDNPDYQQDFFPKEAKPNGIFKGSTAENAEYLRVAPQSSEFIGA
Chain of EGFR del19/T790M/C797S (P00533 with tags, fused parts or gaps DEL746-750/T790M/C797S): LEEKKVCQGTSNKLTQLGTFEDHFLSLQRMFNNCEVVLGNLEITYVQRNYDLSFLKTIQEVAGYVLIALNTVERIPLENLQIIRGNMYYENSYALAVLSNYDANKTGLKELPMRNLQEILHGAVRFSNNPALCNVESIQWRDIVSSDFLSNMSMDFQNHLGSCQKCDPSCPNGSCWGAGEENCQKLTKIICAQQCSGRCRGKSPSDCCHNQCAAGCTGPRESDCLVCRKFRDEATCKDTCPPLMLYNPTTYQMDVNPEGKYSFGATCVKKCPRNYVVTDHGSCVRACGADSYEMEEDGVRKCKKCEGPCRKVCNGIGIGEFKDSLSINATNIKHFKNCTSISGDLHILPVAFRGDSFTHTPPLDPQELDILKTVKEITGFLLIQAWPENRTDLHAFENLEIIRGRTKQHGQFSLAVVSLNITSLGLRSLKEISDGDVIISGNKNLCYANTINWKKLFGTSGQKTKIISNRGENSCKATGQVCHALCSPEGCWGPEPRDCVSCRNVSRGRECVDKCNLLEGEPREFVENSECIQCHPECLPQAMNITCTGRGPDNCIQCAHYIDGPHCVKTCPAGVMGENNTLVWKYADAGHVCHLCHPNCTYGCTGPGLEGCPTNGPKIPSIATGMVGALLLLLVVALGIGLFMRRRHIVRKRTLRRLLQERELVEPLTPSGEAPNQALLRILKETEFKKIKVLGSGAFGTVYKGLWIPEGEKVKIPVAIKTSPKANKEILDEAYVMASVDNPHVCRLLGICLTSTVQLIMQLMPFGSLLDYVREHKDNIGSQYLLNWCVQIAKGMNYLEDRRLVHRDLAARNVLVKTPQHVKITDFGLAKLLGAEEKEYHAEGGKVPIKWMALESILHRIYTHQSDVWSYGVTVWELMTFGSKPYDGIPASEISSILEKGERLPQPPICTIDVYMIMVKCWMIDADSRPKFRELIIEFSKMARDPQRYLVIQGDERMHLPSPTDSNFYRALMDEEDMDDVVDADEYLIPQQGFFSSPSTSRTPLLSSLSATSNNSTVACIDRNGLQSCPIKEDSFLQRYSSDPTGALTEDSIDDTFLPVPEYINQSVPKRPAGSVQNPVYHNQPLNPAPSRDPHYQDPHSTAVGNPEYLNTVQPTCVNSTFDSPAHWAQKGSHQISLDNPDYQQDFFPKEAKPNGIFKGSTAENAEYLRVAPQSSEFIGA
Chain of EGFR L858R/C797S (P00533 25-1210 C797S/L858R): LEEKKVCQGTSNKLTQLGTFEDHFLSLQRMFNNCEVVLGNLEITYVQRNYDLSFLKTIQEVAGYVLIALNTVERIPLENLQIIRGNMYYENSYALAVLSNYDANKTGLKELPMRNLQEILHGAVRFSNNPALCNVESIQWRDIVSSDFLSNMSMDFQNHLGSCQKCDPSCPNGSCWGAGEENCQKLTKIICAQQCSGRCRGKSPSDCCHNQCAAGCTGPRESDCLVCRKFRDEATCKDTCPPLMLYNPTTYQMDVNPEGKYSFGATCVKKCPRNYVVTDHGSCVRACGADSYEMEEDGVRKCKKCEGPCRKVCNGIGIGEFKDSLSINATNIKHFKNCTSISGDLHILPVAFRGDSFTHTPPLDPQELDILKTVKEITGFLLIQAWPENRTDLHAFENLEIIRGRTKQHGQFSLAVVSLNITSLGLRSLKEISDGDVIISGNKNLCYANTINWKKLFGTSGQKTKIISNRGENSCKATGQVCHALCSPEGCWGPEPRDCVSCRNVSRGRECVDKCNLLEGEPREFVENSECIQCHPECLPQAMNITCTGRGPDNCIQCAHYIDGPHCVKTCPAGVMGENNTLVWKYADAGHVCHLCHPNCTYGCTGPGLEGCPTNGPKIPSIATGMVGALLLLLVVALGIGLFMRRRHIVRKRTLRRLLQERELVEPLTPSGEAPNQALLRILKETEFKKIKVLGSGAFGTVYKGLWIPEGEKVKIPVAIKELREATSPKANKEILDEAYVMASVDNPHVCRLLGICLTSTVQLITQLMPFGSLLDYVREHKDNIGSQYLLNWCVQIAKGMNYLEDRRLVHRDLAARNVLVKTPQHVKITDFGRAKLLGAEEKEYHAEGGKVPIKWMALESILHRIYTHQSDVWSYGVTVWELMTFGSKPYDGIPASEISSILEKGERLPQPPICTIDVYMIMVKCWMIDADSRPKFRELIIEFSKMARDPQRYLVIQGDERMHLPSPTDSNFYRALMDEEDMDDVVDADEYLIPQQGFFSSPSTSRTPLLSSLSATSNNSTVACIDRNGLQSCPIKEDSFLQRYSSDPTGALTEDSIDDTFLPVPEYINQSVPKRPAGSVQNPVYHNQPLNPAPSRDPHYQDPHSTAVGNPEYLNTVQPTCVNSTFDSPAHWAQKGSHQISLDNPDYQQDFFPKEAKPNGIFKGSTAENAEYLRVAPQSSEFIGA
Chain of EGFR L858R/T790M/C797S (P00533 25-1210 T790M/C797S/L858R): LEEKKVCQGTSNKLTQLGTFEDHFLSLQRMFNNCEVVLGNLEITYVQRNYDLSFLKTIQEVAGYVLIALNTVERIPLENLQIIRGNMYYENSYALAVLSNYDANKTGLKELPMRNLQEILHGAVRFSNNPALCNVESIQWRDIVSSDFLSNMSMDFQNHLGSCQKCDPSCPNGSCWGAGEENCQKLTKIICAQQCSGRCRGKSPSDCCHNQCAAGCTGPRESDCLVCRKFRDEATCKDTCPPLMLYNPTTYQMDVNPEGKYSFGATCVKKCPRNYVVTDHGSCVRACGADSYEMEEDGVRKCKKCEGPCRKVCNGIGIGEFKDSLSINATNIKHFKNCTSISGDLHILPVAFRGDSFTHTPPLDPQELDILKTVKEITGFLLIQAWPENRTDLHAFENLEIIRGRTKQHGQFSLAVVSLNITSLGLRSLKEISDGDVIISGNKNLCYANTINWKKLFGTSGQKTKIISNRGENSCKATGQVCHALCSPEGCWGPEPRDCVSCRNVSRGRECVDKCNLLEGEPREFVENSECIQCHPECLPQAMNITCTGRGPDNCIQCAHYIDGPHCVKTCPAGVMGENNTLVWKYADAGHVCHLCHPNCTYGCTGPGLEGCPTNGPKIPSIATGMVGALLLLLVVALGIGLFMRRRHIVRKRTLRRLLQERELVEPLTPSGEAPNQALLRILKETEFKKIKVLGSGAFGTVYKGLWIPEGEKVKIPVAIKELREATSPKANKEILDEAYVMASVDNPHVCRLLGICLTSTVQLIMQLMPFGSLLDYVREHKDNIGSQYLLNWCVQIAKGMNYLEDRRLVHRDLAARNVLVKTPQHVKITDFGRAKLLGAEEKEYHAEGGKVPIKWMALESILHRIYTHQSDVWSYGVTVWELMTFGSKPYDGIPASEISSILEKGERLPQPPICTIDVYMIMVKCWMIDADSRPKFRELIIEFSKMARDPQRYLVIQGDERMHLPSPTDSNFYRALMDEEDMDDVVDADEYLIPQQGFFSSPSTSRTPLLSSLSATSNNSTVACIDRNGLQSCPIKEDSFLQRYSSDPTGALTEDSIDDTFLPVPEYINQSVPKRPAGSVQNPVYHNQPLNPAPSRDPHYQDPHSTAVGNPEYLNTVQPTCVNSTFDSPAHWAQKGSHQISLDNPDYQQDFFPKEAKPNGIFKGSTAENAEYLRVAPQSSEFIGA

For `O=S(=O)(C1CC1)n1cc(-c2nccc(Nc3cc(N[C@H]4CC[C@@H](F)CC4)c(-c4ccc(CN5CCOCC5)cn4)cn3)n2)cn1` [Example 126, N^6′-(2-(1-(Cyclopropylsulfonyl)-1H-pyrazol-4-yl)pyrimidin-4-yl)-N^4′-((1s,4s)-4-fluorocyclohexyl)-5-(morpholinomethyl)-[2,3′-bipyridine]-4′,6′-diamine], the IC50 on EGFR del19/T790M/C797S was found to be 2.7 nM; at EGFR L858R/T790M/C797S, 1.2 nM; at EGFR del19/C797S, 12.1 nM; at EGFR L858R/C797S, 12.6 nM; on EGFR wildtype it was 45.7 nM.

Regarding `CC(C)Nc1cc(Nc2ccnc(-c3cnn(S(=O)(=O)C4CC4)c3)n2)ncc1-c1cnc(OC(F)F)cn1` [Example 127, N^2-(2-(1-(Cyclopropylsulfonyl)-1H-pyrazol-4-yl)pyrimidin-4-yl)-5-(5-(difluoromethoxy)pyrazin-2-yl)-N^4-isopropylpyridine-2,4-diamine], the IC50 on EGFR del19/T790M/C797S was 17.5 nM; at EGFR L858R/T790M/C797S, 6.6 nM; at EGFR del19/C797S it was above 10000 nM; on EGFR L858R/C797S, above 10000 nM; at EGFR wildtype it was above 10000 nM.

Turning to `O=S(=O)(C1CC1)n1cc(-c2nccc(Nc3cc(N[C@H]4CC[C@@H](CO)CC4)c(-c4cnc(OC(F)F)cn4)cn3)n2)cn1` [Example 129, ((1s,4s)-4-((2-((2-(1-(Cyclopropylsulfonyl)-1H-pyrazol-4-yl)pyrimidin-4-yl)amino)-5-(5-(difluoromethoxy)pyrazin-2-yl)pyridin-4-yl)amino)cyclohexyl)methanol], the IC50 at EGFR del19/T790M/C797S is 1.4 nM; on EGFR L858R/T790M/C797S, 0.5 nM; at EGFR del19/C797S, 12.6 nM; at EGFR L858R/C797S it was 12.9 nM; on EGFR wildtype it was 116 nM.

Regarding `CC(C)(O)[C@H]1CC[C@@H](Nc2cc(Nc3ccnc(-c4cnn(S(=O)(=O)C5CC5)c4)n3)ncc2-c2cnc(OC(F)F)cn2)CC1` [Example 130, 2-((1s,4s)-4-((2-((2-(1-(Cyclopropylsulfonyl)-1H-pyrazol-4-yl)pyrimidin-4-yl)amino)-5-(5-(difluoromethoxy)pyrazin-2-yl)pyridin-4-yl)amino)cyclohexyl)propan-2-ol], the IC50 was 3.9 nM at EGFR del19/T790M/C797S; 1.7 nM on EGFR L858R/T790M/C797S; 281 nM on EGFR del19/C797S; 239 nM at EGFR L858R/C797S; above 10000 nM at EGFR wildtype.

`CN(C)C[C@H]1CC[C@@H](Nc2cc(Nc3ccnc(-c4cnn(S(=O)(=O)C5CC5)c4)n3)ncc2-c2cnc(OC(F)F)cn2)CC1` [Example 131, N^2-(2-(1-(Cyclopropylsulfonyl)-1H-pyrazol-4-yl)pyrimidin-4-yl)-5-(5-(difluoromethoxy)pyrazin-2-yl)-N^4-((1s,4s)-4-((dimethylamino)methyl)cyclohexyl)pyridine-2,4-diamine]: the IC50 on EGFR del19/T790M/C797S stood at 0.2 nM; on EGFR L858R/T790M/C797S, 0.1 nM; on EGFR del19/C797S, 2.1 nM; on EGFR L858R/C797S it was 2.2 nM; on EGFR wildtype, 8.1 nM.

Take `CN1CCC(Oc2ccc(-c3cnc(Nc4ccnc(-c5cnn(S(=O)(=O)C6CC6)c5)n4)cc3N[C@H]3CC[C@@H](F)CC3)nc2)CC1` [Example 132, N^6′-(2-(1-(Cyclopropylsulfonyl)-1H-pyrazol-4-yl)pyrimidin-4-yl)-N^4′-((1s,4s)-4-fluorocyclohexyl)-5-((1-methylpiperidin-4-yl)oxy)-[2,3′-bipyridine]-4′,6′-diamine]: the IC50 on EGFR del19/T790M/C797S is 0.4 nM; at EGFR L858R/T790M/C797S, 0.4 nM; on EGFR del19/C797S, 0.4 nM; at EGFR L858R/C797S it was 0.3 nM; on EGFR wildtype it was 0.8 nM.

On to `CN1CCC(Oc2ccc(-c3cnc(Nc4ccnc(-c5cnn(CC(F)F)c5)n4)cc3N[C@H]3CC[C@@H](F)CC3)nc2)CC1` [Example 133, N^6′-(2-(1-(2,2-Difluoroethyl)-1H-pyrazol-4-yl)pyrimidin-4-yl)-N^4′-((1s,4s)-4-fluorocyclohexyl)-5-((1-methylpiperidin-4-yl)oxy)-[2,3′-bipyridine]-4′,6′-diamine], for which the IC50 on EGFR del19/T790M/C797S came out at 0.5 nM; on EGFR L858R/T790M/C797S, 0.3 nM; on EGFR del19/C797S it was 1.7 nM; on EGFR L858R/C797S, 1.4 nM; on EGFR wildtype it was 9.3 nM.

In the case of `C[C@]1(O)CC[C@@H](Nc2cc(Nc3ccnc(-c4cnn(S(=O)(=O)C5CC5)c4)n3)ncc2-c2cnc(C(F)(F)F)cn2)CC1` [Example 134, (1s,4s)-4-((2-((2-(1-(Cyclopropylsulfonyl)-1H-pyrazol-4-yl)pyrimidin-4-yl)amino)-5-(5-(trifluoromethyl)pyrazin-2-yl)pyridin-4-yl)amino)-1-methylcyclohexan-1-ol], the IC50 at EGFR del19/T790M/C797S came to 0.9 nM; at EGFR L858R/T790M/C797S, 0.6 nM; at EGFR del19/C797S, 32.1 nM; on EGFR L858R/C797S, 15.6 nM; on EGFR wildtype, 34.2 nM.

On to `FC(F)Cn1cc(-c2nccc(Nc3cc(N[C@H]4CC[C@@H](F)CC4)c(-c4ccc(CN5CCOCC5)cn4)cn3)n2)cn1` [Example 136, N^6′-(2-(1-(2,2-difluoroethyl)-1H-pyrazol-4-yl)pyrimidin-4-yl)-N^4′-((1s,4s)-4-fluorocyclohexyl)-5-(morpholinomethyl)-[2,3′-bipyridine]-4′,6′-diamine], for which the IC50 at EGFR del19/T790M/C797S came out at 0.5 nM; on EGFR L858R/T790M/C797S, 0.2 nM; on EGFR del19/C797S it was 19.1 nM; at EGFR L858R/C797S, 6.4 nM; at EGFR wildtype, 69.8 nM.

For `FC(F)Cn1cc(-c2nccc(Nc3cc(N[C@H]4CC[C@@H](F)CC4)c(-c4ccc(N5CCOCC5)cn4)cn3)n2)cn1` [Example 137, N^6′-(2-(1-(2,2-Difluoroethyl)-1H-pyrazol-4-yl)pyrimidin-4-yl)-N^4′-((1s,4s)-4-fluorocyclohexyl)-5-morpholino-[2,3′-bipyridine]-4′,6′-diamine], the IC50 turned out to be 1.1 nM at EGFR del19/T790M/C797S; 0.2 nM on EGFR L858R/T790M/C797S; 74.4 nM on EGFR del19/C797S; 6.4 nM at EGFR L858R/C797S; 272 nM at EGFR wildtype.

In the case of `CN1CCC(Oc2ccc(-c3cnc(Nc4ccnc(-c5cnn(CC(F)F)c5)n4)cc3NC3CCC(F)(F)C3)nc2)CC1` (centres unmarked) [Example 138, N^4′-(3,3-Difluorocyclopentyl)-N^6′-(2-(1-(2,2-difluoroethyl)-1H-pyrazol-4-yl)pyrimidin-4-yl)-5-((1-methylpiperidin-4-yl)oxy)-[2,3′-bipyridine]-4′,6′-diamine], the IC50 at EGFR del19/T790M/C797S amounted to 0.1 nM; at EGFR L858R/T790M/C797S, 0.2 nM; at EGFR del19/C797S, 4.9 nM; at EGFR L858R/C797S it was 1.6 nM; at EGFR wildtype, 32 nM.

Consider `CN1CCC(Oc2ccc(-c3cnc(Nc4ccnc(-c5cnn(CC(F)F)c5)n4)cc3NC3CC(F)(F)C3)nc2)CC1` [Example 139, N^4′-(3,3-Difluorocyclobutyl)-N^6′-(2-(1-(2,2-difluoroethyl)-1H-pyrazol-4-yl)pyrimidin-4-yl)-5-((1-methylpiperidin-4-yl)oxy)-[2,3′-bipyridine]-4′,6′-diamine], for which the IC50 on EGFR del19/T790M/C797S was 0.3 nM; at EGFR L858R/T790M/C797S it was 0.3 nM; at EGFR del19/C797S, 19.4 nM; at EGFR L858R/C797S, 5 nM; on EGFR wildtype, 208 nM.

In the case of `CN1CCC(Oc2ccc(-c3cnc(Nc4ccnc(-c5cnn(S(=O)(=O)C6CC6)c5)n4)cc3NC3CC(F)(F)C3)nc2)CC1` [Example 140, N^6′-(2-(1-(Cyclopropylsulfonyl)-1H-pyrazol-4-yl)pyrimidin-4-yl)-N^4′-(3,3-difluorocyclobutyl)-5-((1-methylpiperidin-4-yl)oxy)-[2,3′-bipyridine]-4′,6′-diamine], the IC50 on EGFR del19/T790M/C797S worked out at 0.2 nM; at EGFR L858R/T790M/C797S it was 0.2 nM; at EGFR del19/C797S, 8.3 nM; on EGFR L858R/C797S, 15.1 nM; on EGFR wildtype, 67.6 nM.

In the case of `CN1CCC(Oc2ccc(-c3cnc(Nc4ccnc(-c5cnn(CC(F)F)c5)n4)cc3NC3CCCC(F)C3)nc2)CC1` (centres unmarked) [Example 141, N^6′-(2-(1-(2,2-Difluoroethyl)-1H-pyrazol-4-yl)pyrimidin-4-yl)-N^4′-(3-fluorocyclohexyl)-5-((1-methylpiperidin-4-yl)oxy)-[2,3′-bipyridine]-4′,6′-diamine], the IC50 is 0.03 nM at EGFR del19/T790M/C797S; 0.1 nM at EGFR L858R/T790M/C797S; 1.2 nM at EGFR del19/C797S; 0.8 nM at EGFR L858R/C797S; 12.4 nM at EGFR wildtype.

On to `CN1CCC(Oc2ccc(-c3cnc(Nc4ccnc(-c5cnc6c(c5)CCCO6)n4)cc3N[C@H]3CC[C@@](C)(O)CC3)nc2)CC1` [Example 142, (1s,4s)-4-((6′-((2-(3,4-Dihydro-2H-pyrano[2,3-b]pyridin-6-yl)pyrimidin-4-yl)amino)-5-((1-methylpiperidin-4-yl)oxy)-[2,3′-bipyridin]-4′-yl)amino)-1-methylcyclohexan-1-ol], for which the IC50 on EGFR del19/T790M/C797S turned out to be 0.01 nM; at EGFR L858R/T790M/C797S, 0.03 nM; at EGFR del19/C797S, 2 nM; at EGFR L858R/C797S, 0.8 nM; at EGFR wildtype, 17.1 nM.

On to `CN1CCC(Oc2ccc(-c3cnc(Nc4ccnc(-c5cnn(S(=O)(=O)C6CC6)c5)n4)cc3NC3CCC(F)(F)C3)nc2)CC1` (centres unmarked) [Example 143, N^6′-(2-(1-(Cyclopropylsulfonyl)-1H-pyrazol-4-yl)pyrimidin-4-yl)-N^4′-(3,3-difluorocyclopentyl)-5-((1-methylpiperidin-4-yl)oxy)-[2,3′-bipyridine]-4′,6′-diamine], for which the IC50 worked out at 0.1 nM at EGFR del19/T790M/C797S; 0.2 nM on EGFR L858R/T790M/C797S; 1 nM on EGFR del19/C797S; 1.1 nM on EGFR L858R/C797S; 7.9 nM at EGFR wildtype.

The record behind these values is patent US12258328B2, “6-membered heteroaryl-containing aminopyridine compounds as EGFR inhibitors” (YUHAN CORPORATION, priority 2021, dated 2025).
